Drawing on ChEMBL document CHEMBL1150598, “Decipinin A and decipienolides A and B: new bioactive metabolites from the coprophilous fungus Podospora decipiens” (2002), this text covers Activity and zone of inhibition for two compounds.

One assay concerns Sordaria fimicola. Briefly: Antimicrobial activity against Sordaria fimicola NRRL 6459 after 4 days by standard disk assay. The format is functional, organism-based.
In another assay the test system is Fusarium verticillioides. The assay can be described thus: Antimicrobial activity against Fusarium verticillioides ATCC 24378 at 250 ug/disk after 4 days by standard disk assay. The format is functional. The note with it: ATCC 24378, 96 h, read-out: IZ.
Another assay has as its system Bacillus subtilis. The assay can be described thus: Antimicrobial activity against Bacillus subtilis ATCC 6051 at 200 ug/disk after 4 days by standard disk assay. The format is functional. The note with it: ATCC 6051, 96 h, read-out: IZ.
The next assay relates to Ascobolus. The assay can be described thus: Antimicrobial activity against Ascobolus furfuraceus NRRL 6460 after 4 days by standard disk assay. The format is functional, organism-based.
The next assay has as its system Candida albicans. Briefly: Antimicrobial activity against Candida albicans ATCC 90029 after 4 days by standard disk assay. The format is functional, organism-based.

Activity calls are given as the source filed them. The rule behind the calls is not given here.

`CCC/C=C/C=C/C=C/C(=O)O[C@@H]1C2=CC(=O)C(C)(OC(C)=O)C(=O)C2=CO[C@]12O[C@H](C)CC[C@@H]2OC(=O)CCC(=O)O` (some centres undefined) [DECIPININ A]: the outcome with Sordaria fimicola, with Ascobolus and with Candida albicans was inactive. Moreover, in the assay with Fusarium verticillioides, the zone of inhibition at 250 µg/disc stood at 22 mm. In addition, the zone of inhibition at 200 µg/disc in the assay on Bacillus subtilis was determined as 9 mm.

Take `C=C1C(OC(=O)C(C)(C)C(C)O)CC2CC1C21CO[C@@]2(C[C@H](C)C(=O)O2)C1.C=C1C(OC(=O)C(C)(C)C(C)O)CC2CC1C21CO[C@]2(C[C@H](C)C(=O)O2)C1` (some centres undefined) [DECIPIENOLIDE A AND B]: the outcome with Sordaria fimicola, in the assay on Ascobolus and in the assay on Candida albicans was inactive. In addition, in the assay with Bacillus subtilis, the zone of inhibition at 200 µg/disc amounted to 9 mm.
